Assay results taken from paper PMC9240326, “BacPROTACs mediate targeted protein degradation in bacteria” (Cell, 2022).
Where a SMILES comes first, the peptide text is derived from it. [ ]: non-standard residue; d: D form. Phe(βR-OMe) = CO[C@H](c1ccccc1)[C@H](N)C(=O)O; NMeL = CN[C@@H](CC(C)C)C(=O)O; NMeK = CN[C@@H](CCCCN)C(=O)O

Columns and labels:
[1] = Solubility in aqueous solutions (remark in ITC method); format: physicochemical
[2] = target: BRDTBD1 (Homo sapiens, UniProt Q58F21); assay: Wes analysis of BRDTBD1 levels in M. smegmatis; format: cell-based; conditions: 30 min of incubation, relative to DMSO
[3] = target: ClpC1NTD (Mycolicibacterium smegmatis, UniProt A0R574); assay: biochemical; format: binding, Mycobacterium smegmatis
Sequence of ClpC1NTD (A0R574 1-148 limits assumed): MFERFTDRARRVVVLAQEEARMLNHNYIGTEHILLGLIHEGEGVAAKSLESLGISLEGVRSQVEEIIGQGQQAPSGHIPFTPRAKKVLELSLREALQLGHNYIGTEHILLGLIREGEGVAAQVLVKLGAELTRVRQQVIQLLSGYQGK

[4] = target: B. subtilis ClpCP protease (Bacillus subtilis, UniProt P37571); format: biochemical
Sequence of B. subtilis ClpCP protease (P80244 whole entry): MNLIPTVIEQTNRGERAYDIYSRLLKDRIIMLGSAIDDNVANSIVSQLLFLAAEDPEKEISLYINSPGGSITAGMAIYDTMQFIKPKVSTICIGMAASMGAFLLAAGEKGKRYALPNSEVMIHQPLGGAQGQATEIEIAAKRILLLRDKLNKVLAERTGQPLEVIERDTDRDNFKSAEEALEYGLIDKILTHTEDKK
Sequence of B. subtilis ClpCP protease (P37571 whole entry): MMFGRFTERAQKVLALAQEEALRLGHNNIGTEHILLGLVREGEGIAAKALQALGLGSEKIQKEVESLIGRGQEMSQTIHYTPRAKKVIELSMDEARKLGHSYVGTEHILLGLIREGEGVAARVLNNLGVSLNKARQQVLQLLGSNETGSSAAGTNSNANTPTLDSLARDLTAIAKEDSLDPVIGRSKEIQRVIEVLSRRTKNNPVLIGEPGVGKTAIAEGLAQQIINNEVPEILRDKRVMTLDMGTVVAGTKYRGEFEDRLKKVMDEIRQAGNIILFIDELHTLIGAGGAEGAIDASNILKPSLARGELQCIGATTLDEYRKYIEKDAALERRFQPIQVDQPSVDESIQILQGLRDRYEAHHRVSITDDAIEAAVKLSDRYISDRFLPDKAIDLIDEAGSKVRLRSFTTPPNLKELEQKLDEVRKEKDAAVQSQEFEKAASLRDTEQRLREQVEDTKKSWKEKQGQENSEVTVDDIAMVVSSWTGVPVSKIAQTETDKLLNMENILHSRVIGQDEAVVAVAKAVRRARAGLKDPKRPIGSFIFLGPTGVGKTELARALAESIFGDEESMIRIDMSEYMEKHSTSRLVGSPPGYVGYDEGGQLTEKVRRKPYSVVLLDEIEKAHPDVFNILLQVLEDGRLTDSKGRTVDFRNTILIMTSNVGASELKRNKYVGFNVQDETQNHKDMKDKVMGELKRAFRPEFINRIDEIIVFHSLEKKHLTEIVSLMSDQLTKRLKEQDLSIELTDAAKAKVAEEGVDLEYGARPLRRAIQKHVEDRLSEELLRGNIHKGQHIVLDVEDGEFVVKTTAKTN

CC[C@H](C)[C@@H]1NC(=O)[C@H](CC(C)C)N(C)C(=O)[C@H](C(C)C)NC(=O)[C@H]([C@H](OC)c2ccccc2)NC(=O)[C@H](C)NC(=O)[C@H](CCCCN)N(C)C(=O)[C@H](Cc2c[nH]c3ccccc23)NC1=O [sCym-1] (cyclo(W[NMeK]A[Phe(βR-OMe)]V[NMeL]I))
Solubility in aqueous solutions [1]: low solubility
BRDTBD1 levels in M. smegmatis (Wes) [2]: did not significantly alter BRDTBD1 levels
Kd [3]: 810 nM

CC(=O)NC(CCCNC(=N)N)C(=O)NCCOCCOCCC(=O)NCCOCCOCCC(=O)NCCOCCOCCC(=O)NC(CCCCNC(=O)CCCCC1SCC2NC(=O)NC21)C(N)=O (stereo not shown) [BacPROTAC-1c]
mSA-Kre degradation by ClpCP, BacPROTAC-1 analogs [4]: did not induce substrate degradation
